Here are results for 1 compound from US6395740B1, “Calcitonin mimetics” (ZymoGenetics, Inc., priority 1997, dated 2002).

A word on the IC50: it is the concentration needed to halve the response being measured. One may read the EC50 as the concentration at which the effect is half-maximal.

In brackets after ≈: the same amount, converted by molar mass.

Experiment [1] deals with PTH-induced bone resorption in mouse calvariae. The experiment in a line: Calvarial assay: inhibition of PTH-induced bone resorption (calcium release). In kind it is cell-based. The settings on record: 1 nM PTH 1-34, 72 hours, read-out: Release of PTH Induced Ca++ IC50. Here is the method:
Calvaria from 4-day old neonatal CD-1 mice (pregnant mice received from Charles River Laboratories, Wilmington, Mass.) were trimmed with fine-tipped scissors to leave the parietal regions, including the sagittal suture. These trimmed bones were placed singly per well into 6-well cell culture cluster plates (Costar, Pleasanton, Calif.) with 1 mL/well of growth medium (DMEM, BioWhittaker, Walkersville, Md.) with 4.5 g/L glucose, 0.29 mg/mL L-glutamine, 1 mM sodium pyruvate, 15% heat-inactivated horse serum, and antibiotics (penicillin-G 50 μg/mL, streptomycin 50 μg/mL, and neomycin 100 μg/mL), and rocked gently (RedRocker™, model PR50-115V, Hoefer, San Francisco, Calif.) at 37° C. in a 5% CO2 humidified incubator for 24 hours preincubation.
Following preincubation, medium was removed and replaced with 1.5 mL/well of growth medium containing 1 nM parathyroid hormone (PTH) 1-34 (Sigma) to stimulate bone resorption. For evaluation of the ability of calcitonin mimetics to inhibit PTH induced bone resorption, mimetic compounds in DMSO were added to the growth medium at concentrations ranging from 1-400 μg/mL (final assay concentration of DMSO less than or equal to […]). In each exierimerec human calcitonin (0.02-20 nM, 0.2-2 nM preferred) was added to PTH treated bones as a positive control. […] All control wells contained a final assay concentration of DMSO equal to that present in calcitonin mimetic treated wells.
Five bones were included in each sample group. Bones were incubated for 72 hours following PTH addition to allow resorption of bone to occur. Observations were made of the general appearance, healthiness and number of cells that migrate from the calvaria during the incubation as a possible indication of possible toxicity. Calvaria to be examined histologically were transferred to glass scintillation vials containing 10 mL of 10% neutral buffered formalin. The medium was removed from the wells, and total calcium measurements were made using a Nova 7/7+7 Electrolyte Analyzer (Nova Biomedical, Waltham, Mass.) according to the manufacturer's specifications. Induction of bone resorption by PTH is seen as an increase in the concentration of calcium in the growth medium due to degradation of the bone matrix.

Experiment [2] addresses T1, human calcitonin receptor (Homo sapiens, UniProt P30988).
T1 construct: expressed in transfected cells; host or cells: BHK (baby hamster kidney) cells, line Hollex-2 (Hollex 1 in the general description)
T1 sequence (P30988 25-474): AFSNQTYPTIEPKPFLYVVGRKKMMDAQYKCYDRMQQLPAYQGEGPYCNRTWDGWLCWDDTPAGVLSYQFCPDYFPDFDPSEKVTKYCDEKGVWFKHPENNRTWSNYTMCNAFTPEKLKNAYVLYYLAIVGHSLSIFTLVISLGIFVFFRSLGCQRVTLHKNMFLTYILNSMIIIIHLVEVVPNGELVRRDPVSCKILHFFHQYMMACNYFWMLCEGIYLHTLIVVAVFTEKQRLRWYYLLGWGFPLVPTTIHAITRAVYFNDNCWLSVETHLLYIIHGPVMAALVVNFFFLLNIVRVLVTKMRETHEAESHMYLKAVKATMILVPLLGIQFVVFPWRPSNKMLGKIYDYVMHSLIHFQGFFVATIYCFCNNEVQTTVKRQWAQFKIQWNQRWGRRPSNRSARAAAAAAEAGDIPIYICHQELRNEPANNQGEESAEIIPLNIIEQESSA
The experiment is described as follows: CRE-luciferase assay for calcitonin mimetic activity. Type of experiment: cell-based. The source says: An alternative assay system (described in WO96/31536 which is incorporated herein in its entirety) involves selection of substances that are able to induce expression of a cyclic AMP response element (CRE)-luciferase reporter gene, as a consequence of elevated cAMP levels, in cells expressing a calcitonin receptor, but not in cells lacking calcitonin receptor expression. Such cells could include, for example, Boris/KS10-3 (expressing hamster calcitonin receptor and a CRE-luciferase reporter gene in baby hamster kidney cells (BHK 570 cells)) or Hollex 1 (expressing human calcitonin receptor and a CRE-luciferase reporter gene in BHK cells, as described in WO96/31536) or KZ10-20-48/pLJ6-4-25, which expresses the human glucagon receptor and a CRE-luciferase reporter gene in BHK cells. The human glucagon receptor is another member of the G-protein-coupled receptor family that transduces signal through adenylate cyclase-mediated elevation of cAMP.
This CRE-luciferase assay measures the end result of a multi-step signal transduction pathway triggered when a calcitonin mimetic stimulates the G-coupled calcitonin receptor. The complexity of this pathway provides multiple mechanisms for induction of luciferase transcription at points that are downstream of the calcitonin receptor, and therefore may not be calcitonin receptor-specific (e.g., forskolin's direct activation of adenylate cyclase). Any response triggered by non-specific inducers is eliminated by counter screening using the calcitonin receptor-negative cell lines described above.
Receptor-positive and -negative cell lines were maintained by serial passage in growth medium (DMEM supplemented with 10% heat-inactivated fetal calf serum (HI-FCS), 2 mM L-glutamine, 1 mM sodium pyruvate, 250 nM MTX, and 1 mg/mL G418). On the day prior to assay, cells were trypsinized, adjusted to 2×10^5 cells/mL in growth medium, plated in opaque white Dynatech Microlite microtiter tissue culture plates at 100 μL/well (2×10^4 cells), and grown overnight to confluence (37° C., 5% CO2 atmosphere)
Test substances were prepared in DMSO at 100 times the final desired assay concentration. Induction was initiated by adding 100 μL/well test substance diluted 1:100 or 1:1000 (only first round screening extracts were diluted 1:100) in assay medium (DMEM supplemented with 10% HI-FCS, 2 mM L-glutamine, 1 mM sodium pyruvate and 20 mM Hepes, pH 7.25). Controls were included on each plate: untreated wells (basal), […] forskolin, and 100 nM human calcitonin. For test substances prepared in DMSO, an equal concentration of DMSO was included in control wells (not to exceed a final assay concentration of 2% DMSO, with a preferred maximum of 1%). Plates were incubated for 3 to 8 hours (4 hours preferred) at 37° C. in an atmosphere of 5% CO2.
Following induction, luciferase activity was measured using a Promega luciferase assay kit (E1500) according to the assay kit protocol. Briefly, assay medium was removed and cells were washed once with phosphate buffered saline (PBS). After the wash, 25 μL of lysis buffer was added to each well, and the plates were incubated for 15 minutes at room temperature. Fifty microliters of Luciferase Assay Substrate (Promega, Corp.) was added to each well and the plates were transferred to a Labsystems Lumiscan microtiter luminometer. The amount of luminescence (relative light units, RLU) was determined by “Fastscan” following a 0.1 second/well integration of signal. Basal (uninduced) luciferase signal was subtracted from all measurements, and the luciferase signal induced by test samples was expressed as a percentage of the signal in the calcitonin and forskolin controls. […]

Take `COc1cc(CN2CCN(C(=O)Nc3cccc(C(F)(F)F)c3)CC2)ccc1O` [Compound 850-0231]: the half-inhibitory concentration (IC50) in experiment [1] lay in the range of 25 to 50 µg/mL (≈ 61.1 to 122 µM). Besides, the half-maximal effective concentration (EC50) in experiment [2] lay within 61.1 to 122 µM.
